Source: US20040152741A1, “Arylglycine derivatives and their use as glycine transport inhibitors” (NPS Allelix Corporation, priority 2002, published 2004)

Biological target: T1, GlyT-1 C (Homo sapiens, UniProt P48067)
T1 construct: expressed in transfected cells; QT-6 quail fibroblast cells are called preferred
T1 sequence (P48067 1-706): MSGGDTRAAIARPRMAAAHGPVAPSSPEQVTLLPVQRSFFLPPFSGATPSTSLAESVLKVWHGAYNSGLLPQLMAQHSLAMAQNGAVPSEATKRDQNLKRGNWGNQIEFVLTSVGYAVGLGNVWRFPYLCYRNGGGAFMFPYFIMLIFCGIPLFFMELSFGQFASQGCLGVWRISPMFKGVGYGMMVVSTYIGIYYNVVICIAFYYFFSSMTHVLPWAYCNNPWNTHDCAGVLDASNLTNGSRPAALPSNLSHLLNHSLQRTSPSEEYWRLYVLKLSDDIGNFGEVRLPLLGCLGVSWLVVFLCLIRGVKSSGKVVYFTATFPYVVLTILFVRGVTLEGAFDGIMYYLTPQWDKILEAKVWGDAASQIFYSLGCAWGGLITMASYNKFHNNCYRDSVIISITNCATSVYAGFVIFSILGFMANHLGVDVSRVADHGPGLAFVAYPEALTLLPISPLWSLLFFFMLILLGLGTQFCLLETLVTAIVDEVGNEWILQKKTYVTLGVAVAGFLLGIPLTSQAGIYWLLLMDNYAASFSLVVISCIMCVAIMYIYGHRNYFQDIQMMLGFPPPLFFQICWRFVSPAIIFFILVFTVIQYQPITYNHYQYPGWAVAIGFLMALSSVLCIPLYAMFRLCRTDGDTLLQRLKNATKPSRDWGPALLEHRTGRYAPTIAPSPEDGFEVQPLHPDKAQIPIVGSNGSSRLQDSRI
Test: Assay of transport via GlyT-1: [3H]glycine uptake by stably transfected cells
Type: cell-based
Details: cells stably transfected with GlyT-1 C; 50 nM [3H]glycine, 30 minutes at 37° C.; read-out: GlyT1 uptake IC50
Source text: For use in assaying for activity in inhibiting glycine transport, eukaryokic cells, preferably QT-6 cells derived from quail fibroblasts, have been transfected to express one of the three known variants of human GlyT-1, namely GlyT-1a, GlyT-1b or GlyT-1c, or human GlyT-2. The sequences of these GlyT-1 transporters are described in Kim et al., Molec. Pharm. 45: 608-617, 1994, excepting that the sequence encoding the extreme N-terminal of GlyT-1a was merely inferred from the corresponding rat-derived sequence. This N-terminal protein-encoding sequence has now been confirmed to correspond to that inferred by Kim et al. The sequence of the human GlyT-2 is described by Albert et al., U.S. Pat. No. 919,653 issued July 1999, which is incorporated herein by reference in its entirety. Suitable expression vectors include pRc/CMV (Invitrogen), Zap Express Vector (Stratagene Cloning Systems, LaJolla, Calif.; hereinafter “Stratagene”), pBk/CMV or pBk-RSV vectors (Stratagene), Bluescript II SK +/− Phagemid Vectors (Stratagene), LacSwitch (Stratagene), pMAM and pMAM neo (Clontech), among others. A suitable expression vector is capable of fostering expression of the included GlyT DNA in a suitable host cell, preferably a non-mammalian host cell, which can be eukaryotic, fungal, or prokaryotic. Such preferred host cells include amphibian, avian, fungal, insect, and reptilian cells.
This example illustrates a method for the measurement of glycine uptake by transfected cultured cells.
Cells stably transfected with GlyT-1 C (see Kim, et al., Molecular Pharmacology, 45, 1994:608-617) were washed twice with HEPES buffered saline (HBS). The cells were then incubated for 10 minutes at 37° C. with either (a) no potential competitor, (b) 10 mM non-radioactive glycine or (c) a concentration of a candidate drug. A range of concentrations of the candidate drug was used to generate data for calculating the concentration resulting in 50% of the effect (e.g., the IC50s, which are the concentrations of drug inhibiting glycine uptake by 50%). A solution was then added containing [^3H]glycine at a final concentration of 50 nM (17.5 Ci/mmol). The cells were then incubated with gentle shaking for another 30 minutes at 37° C., after which the reaction mixture was aspirated and washed three times with ice-cold HBS. The cells were lysed with scintillant and allowed to equilibrate. The radioactivity in the cells was determined using a scintillation counter. Data was compared between the same cells contacted or not contacted by a candidate agent, depending on the assay being conducted.

| Structure (SMILES) | IC50 |
| --- | --- |
| COc1ccc([N+](=O)[O-])cc1NC(=O)N[C@@H](C(=O)Nc1ccc2c(c1)CCC2)c1ccccc1 [E29.1*] | 71.9 nM |
| COc1ccc([N+](=O)[O-])cc1NC(=S)N[C@@H](C(=O)Nc1ccc(C)c(C)c1)c1ccccc1 [E33.1*, (R)-2-[3-(2-methoxy-5-nitro-phenyl)-thioureido]-N-(3,4-dimethylphenyl)-2-phenyl acetamide] | 96 nM |
| COc1ccc([N+](=O)[O-])cc1NC(=O)NC(C(=O)Nc1cccc(C(F)(F)F)c1)c1ccccc1 (stereo not shown) [Experiment E31.2, 2-[3-(2-methoxy-5-nitro-phenyl)-ureido]-N-(3-trifluoromethylphenyl)-2-phenyl acetamide] | 202 nM |
| COc1ccc([N+](=O)[O-])cc1NC(=S)NC(C(=O)Nc1ccc(C)c(C)c1)c1ccccc1 (stereo not shown) [Experiment E32.2, 2-[3-(2-methoxy-5-nitro-phenyl)-thioureido]-N-(3,4-dimethylphenyl)-2-phenyl acetamide] | 334 nM |
| COc1ccc([N+](=O)[O-])cc1NC(=O)N[C@@H](C(=O)Nc1ccc(C)c(C)c1)c1ccccc1 [Experiment E32.5, (R)-2-[3-(2-methoxy-5-nitro-phenyl)-ureido]-N-(3,4-dimethylphenyl)-2-phenyl acetamide] | 25.9 nM |
| COc1ccc([N+](=O)[O-])cc1NC(=O)NC(C(=O)Nc1ccc2c(c1)CCC2)c1ccsc1 (stereo not shown) [Experiment E42.1] | 114 nM |
| COc1ccc([N+](=O)[O-])cc1NC(=S)NC(C(=O)Nc1ccc2c(c1)CCC2)c1ccsc1 (stereo not shown) [Experiment E42.2] | 131 nM |
